Test system: 233499-124-R-J3-PDC spheroids with HUVEC/MSC, viability
Test: Anticancer human tumor 233499-124-R-J3-PDC patient-derived colon adenocarcinoma cell line growth inhibition [PI3K]
Conditions: for IC50: curve of first compound; for viability, T/C: stronger effect = lower value
Description: Combinatorial screen of targeted agents with the PI3K inhibitors inavolisib, alpelisib, duvelisib, and copanlisib in multi-cell type tumor spheroids
A high-throughput screen of multi-cell type tumor spheroids was designed to identify active combinations of targeted small molecules and PI3K pathway inhibitors. Complex spheroids include a stromal component modeled by human endothelial cells (HUVEC) and fibroblasts modeled by human mesenchymal stem cells (MSCs). The concentration ranges selected for each drug and investigational agent were based upon clinically achievable concentrations if the clinical Cmax of the agent was known.
Compounds. The drugs and investigational agents: inavolisib (NSC800729), alpelisib (NSC765974), duvelisib (NSC772469), copanlisib (NSC816437), ipatasertib (NSC767898), afuresertib (NSC778305), talazoparib (NSC767125), sapanisertib (NSC764658), selumetinib (NSC741078), tovorafenib (DAY101, NSC766906), vemurafenib (NSC761431), ravoxertinib (NSC781343), sotorasib (NSC818433), MRTX1133 (NSC 836407), abemaciclib (NSC 768073), palbociclib (NSC758247), venetoclax (NSC 766270), SY5609 (NSC837396), enzalutamide (NSC755605), and darolutamide (NSC825331), were obtained from the National Cancer Institute (NCI) Developmental Therapeutics Program Chemical Repository. The FDA-approved anticancer drug set is available from the NCI Developmental Therapeutics Program. […] The stock solutions were prepared in dimethyl sulfoxide (DMSO, Sigma-Aldrich, St. Louis, MO, cat. D2650) at 800-fold the tested concentration and stored at -70 degrees C prior to their use. All drugs and investigational agents were tested over a range starting from a high concentration at or near the clinical Cmax and decreasing in half-log increments. If the clinical Cmax for an agent had not been determined, the highest concentration tested was 10 microM.
Cell Culture. All cells were maintained in an incubator at 37 degrees C and 5% CO2 with 95% humidity. The PDC lines were cultured according to standard operating procedures established by the NCI PDMR (https://pdmr.cancer.gov/sops/default.htm). All PDCs were thawed and cultured in Matrigel-coated flasks prepared with a working solution of 1X Ham's F-12 nutrient mix, without supplementation (Invitrogen, Waltham, MA, cat. 11765054), 100 U/mL penicillin-streptomycin (Invitrogen, cat. 15140122), and 2.5% Matrigel (Corning Inc., Corning, NY, cat. 354248) for the first three passages. The 354836-022-R-J1-PDC, 475296-252-R-J1-PDC, and 997726-040-R-J2-PDC lines were cultured in 6A media, which includes advanced DMEM/F-12 (Thermo Fisher Scientific, cat. 12634028), 10 mM HEPES (Thermo Fisher Scientific, cat. 15630080), 1X GlutaMAX supplement (Thermo Fisher Scientific, cat. 35050061), 0.1 mg/mL primocin (InvivoGen, San Diego, CA, cat. ant-pm-2), 10% defined fetal bovine serum, heat inactivated (HyClone Laboratories Inc., Logan, UT, cat. SH30070.03HI), 50% L-WRN conditioned media (ATCC, cat. CRL-3276), 1.25 mM N-Acetyl-L-cysteine (Sigma-Aldrich, cat. A9165), 10 mM nicotinamide (Sigma-Aldrich, cat. N0636), 1X B-27 supplement (Thermo Fisher Scientific, cat. 17504044), 1X N-2 supplement (Thermo Fisher Scientific, cat. 17502048), and 10 microM Y-27632 dihydrochloride (Tocris Bioscience, Bristol, United Kingdom, cat. 1254). The 624824-186-R-J2-PDC line was cultured in 6C/Colon 1B media, which includes all 6A media components plus 50 ng/mL human EGF recombinant protein (Thermo Fisher Scientific, cat. PHG0311). […]

[1] = second compound 0.00316 µM, first compound 0.0316 µM
[2] = second compound 0.00316 µM, first compound 0.1 µM
[3] = second compound 0.00316 µM, first compound 0.316 µM
[4] = second compound 0.00316 µM, first compound 1 µM
[5] = second compound 0.00316 µM, first compound 3.16 µM
[6] = second compound 0.00316 µM, first compound 10 µM
[7] = second compound 0.01 µM, first compound 0.0316 µM
[8] = second compound 0.01 µM, first compound 0.1 µM
[9] = second compound 0.01 µM, first compound 0.316 µM
[10] = second compound 0.01 µM, first compound 1 µM
[11] = second compound 0.01 µM, first compound 3.16 µM
[12] = second compound 0.01 µM, first compound 10 µM
[13] = second compound 0.0316 µM, first compound 0.0316 µM
[14] = second compound 0.0316 µM, first compound 0.1 µM
[15] = second compound 0.0316 µM, first compound 0.316 µM
[16] = second compound 0.0316 µM, first compound 1 µM
[17] = second compound 0.0316 µM, first compound 3.16 µM
[18] = second compound 0.0316 µM, first compound 10 µM
[19] = second compound 0.1 µM, first compound 0.0316 µM
[20] = second compound 0.1 µM, first compound 0.1 µM
[21] = second compound 0.1 µM, first compound 0.316 µM
[22] = second compound 0.1 µM, first compound 1 µM
[23] = second compound 0.1 µM, first compound 3.16 µM
[24] = second compound 0.1 µM, first compound 10 µM
[25] = second compound 0.316 µM, first compound 0.0316 µM
[26] = second compound 0.316 µM, first compound 0.1 µM
[27] = second compound 0.316 µM, first compound 0.316 µM
[28] = second compound 0.316 µM, first compound 1 µM
[29] = second compound 0.316 µM, first compound 3.16 µM
[30] = second compound 0.316 µM, first compound 10 µM
[31] = second compound 1 µM, first compound 0.0316 µM
[32] = second compound 1 µM, first compound 0.1 µM
[33] = second compound 1 µM, first compound 0.316 µM
[34] = second compound 1 µM, first compound 1 µM
[35] = second compound 1 µM, first compound 3.16 µM
[36] = second compound 1 µM, first compound 10 µM
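Also: spheroids exposed to agents for seven days before readout.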
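For viability, T/C in this document: percent viability relative to DMSO vehicle control taken as 100%.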

With `CC(C)NCC(C(=O)N1CCN(c2ncnc3c2C(C)CC3O)CC1)c1ccc(Cl)cc1` (stereo unspecified) + CC(Nc1ccc2c(c1)OCCn1cc(N3C(=O)OCC3C(F)F)nc1-2)C(N)=O the IC50 (second compound 0.00316 µM) was over 10000 nM, the IC50 (second compound 0.01 µM) was over 10000 nM and the IC50 (second compound 0.0316 µM) was over 10000 nM. For the same compound, the IC50 (second compound 0.1 µM) was over 10000 nM, the IC50 (second compound 0.316 µM) was over 10000 nM and the IC50 (second compound 1 µM) was 7250 nM. For the same compound, the viability, T/C [1] was 53.2%, the viability, T/C [2] was 98.8% and the viability, T/C [3] was 74.7%. The viability, T/C [4] was 96%, the viability, T/C [5] was 94.2% and the viability, T/C [6] was 50.3%. For the same compound, the viability, T/C [7] was 96.7%, the viability, T/C [8] was 102% and the viability, T/C [9] was 94.8%. It also gave a viability, T/C [10] of 96.2%, a viability, T/C [11] of 86.1% and a viability, T/C [12] of 71.1%. The viability, T/C [13] was 89%, the viability, T/C [14] was 84.9% and the viability, T/C [15] was 89%. It also gave a viability, T/C [16] of 86.1%, a viability, T/C [17] of 81.2% and a viability, T/C [18] of 76.8%. The viability, T/C [19] was 87.7%, the viability, T/C [20] was 86.2% and the viability, T/C [21] was 77.3%. The viability, T/C [22] was 51.9%, the viability, T/C [23] was 80.8% and the viability, T/C [24] was 58.6%. It also gave a viability, T/C [25] of 72.2%, a viability, T/C [26] of 83.2% and a viability, T/C [27] of 69.7%. It also gave a viability, T/C [28] of 67.5%, a viability, T/C [29] of 59.9% and a viability, T/C [30] of 79.5%. The viability, T/C [31] was 49.2%, the viability, T/C [32] was 40.3% and the viability, T/C [33] was 65.2%. The viability, T/C [34] was 68.7%, the viability, T/C [35] was 50.9% and the viability, T/C [36] was 36.4%.
With `CCN1CCN(Cc2ccc(Nc3ncc(F)c(-c4cc(F)c5nc(C)n(C(C)C)c5c4)n3)nc2)CC1` + CC(Nc1ccc2c(c1)OCCn1cc(N3C(=O)OCC3C(F)F)nc1-2)C(N)=O the IC50 (second compound 0.00316 µM) was over 1000 nM, the IC50 (second compound 0.01 µM) was 672 nM and the IC50 (second compound 0.0316 µM) was 528 nM. The IC50 (second compound 0.1 µM) was 236 nM, the IC50 (second compound 0.316 µM) was 86.9 nM and the IC50 (second compound 1 µM) was 4.39 nM. It also gave a viability, T/C (second compound 0.00316 µM, first compound 0.00316 µM) of 68.8%, a viability, T/C (second compound 0.00316 µM, first compound 0.01 µM) of 98.9% and a viability, T/C [1] of 94%. It also gave a viability, T/C [2] of 73.7%, a viability, T/C [3] of 59.5% and a viability, T/C [4] of 49.7%. For the same compound, the viability, T/C (second compound 0.01 µM, first compound 0.00316 µM) was 106%, the viability, T/C (second compound 0.01 µM, first compound 0.01 µM) was 95.8% and the viability, T/C [7] was 89.7%. For the same compound, the viability, T/C [8] was 85.4%, the viability, T/C [9] was 79.9% and the viability, T/C [10] was 35.7%. For the same compound, the viability, T/C (second compound 0.0316 µM, first compound 0.00316 µM) was 90.2%, the viability, T/C (second compound 0.0316 µM, first compound 0.01 µM) was 85.2% and the viability, T/C [13] was 82%. For the same compound, the viability, T/C [14] was 91.6%, the viability, T/C [15] was 58.5% and the viability, T/C [16] was 39.3%. The viability, T/C (second compound 0.1 µM, first compound 0.00316 µM) was 87.8%, the viability, T/C (second compound 0.1 µM, first compound 0.01 µM) was 90.8% and the viability, T/C [19] was 73.8%. It also gave a viability, T/C [20] of 79%, a viability, T/C [21] of 39.4% and a viability, T/C [22] of 40.8%. The viability, T/C (second compound 0.316 µM, first compound 0.00316 µM) was 73.2%, the viability, T/C (second compound 0.316 µM, first compound 0.01 µM) was 72.7% and the viability, T/C [25] was 63%. For the same compound, the viability, T/C [26] was 51.1%, the viability, T/C [27] was 31.2% and the viability, T/C [28] was 44.5%. It also gave a viability, T/C (second compound 1 µM, first compound 0.00316 µM) of 55.3%, a viability, T/C (second compound 1 µM, first compound 0.01 µM) of 45.2% and a viability, T/C [31] of 32.2%. For the same compound, the viability, T/C [32] was 48.9%, the viability, T/C [33] was 42.6% and the viability, T/C [34] was 27.8%.
Compound `Cn1ncc(Cl)c1-c1cc(C(=O)NC(CN)Cc2cccc(F)c2)sc1Cl` (stereo unspecified) + CC(Nc1ccc2c(c1)OCCn1cc(N3C(=O)OCC3C(F)F)nc1-2)C(N)=O has an IC50 (second compound 0.00316 µM) of 4460 nM, an IC50 (second compound 0.01 µM) of 3790 nM and an IC50 (second compound 0.0316 µM) of 2730 nM. For the same compound, the IC50 (second compound 0.1 µM) was 3190 nM, the IC50 (second compound 0.316 µM) was 1800 nM and the IC50 (second compound 1 µM) was 1730 nM. It also gave a viability, T/C [1] of 73.9%, a viability, T/C [2] of 93% and a viability, T/C [3] of 93.9%. For the same compound, the viability, T/C [4] was 99.9%, the viability, T/C [5] was 58.4% and the viability, T/C [6] was 30.5%. The viability, T/C [7] was 86.1%, the viability, T/C [8] was 81.8% and the viability, T/C [9] was 81.5%. The viability, T/C [10] was 80.8%, the viability, T/C [11] was 53.3% and the viability, T/C [12] was 32.1%. It also gave a viability, T/C [13] of 111%, a viability, T/C [14] of 82.9% and a viability, T/C [15] of 80.3%. For the same compound, the viability, T/C [16] was 77.8%, the viability, T/C [17] was 43.8% and the viability, T/C [18] was 21.4%. For the same compound, the viability, T/C [19] was 97.4%, the viability, T/C [20] was 94.3% and the viability, T/C [21] was 65.6%. It also gave a viability, T/C [22] of 67%, a viability, T/C [23] of 62.3% and a viability, T/C [24] of 16.6%. It also gave a viability, T/C [25] of 79%, a viability, T/C [26] of 94.3% and a viability, T/C [27] of 61.5%. It also gave a viability, T/C [28] of 55.2%, a viability, T/C [29] of 46.9% and a viability, T/C [30] of 19.8%. For the same compound, the viability, T/C [31] was 42.6%, the viability, T/C [32] was 61.8% and the viability, T/C [33] was 67.2%. It also gave a viability, T/C [34] of 56%, a viability, T/C [35] of 42.9% and a viability, T/C [36] of 14.3%.

— PubChem BioAssay AID1963984 (Molecular Pharmacology Branch, DTP, NCI, 2024)
